This note sets out measurements from paper PMC7408547, “Bivalent Inhibitor with Selectivity for Trimeric MMP-9 Amplifies Neutrophil Chemotaxis and Enables Functional Studies on MMP-9 Proteoforms” (Cells, 2020).

One data set relates to U-87 cell line. Kind of data set: U-87 cell viability (LIVE/DEAD). The format is cell-based. As to conditions: up to a concentration of 20 µM; 17 h. The procedure:
Toxicity of compounds 5 and 7 was evaluated in vitro on the U-87 cell line. Briefly, U-87 cells were seeded in 96-well plates (cat. No. 92096, TPP Techno Plastic Products, Trasadingen, Switzerland) at 2000 cells/well in DMEM FluoroBrite containing 10% FBS and incubated for 24 h. Cells were washed and further grown in DMEM FluoroBrite with 5% KnockOut™ Serum Replacement (Gibco, Waltham, MA, USA). Compounds 5 and 7 were added to the wells in a 1:2 dilution series starting at 20 µM and ending at 0.16 µM. To evaluate the effect of the compound on cell growth, confluence was determined every hour for 17h using the Incucyte® S3 Live-Cell Analysis System (Sartorius, Göttingen, Germany). Next, cells were stained with the LIVE/DEAD™ Viability/Cytotoxicity Kit for mammalian cells (Invitrogen, Carlsbad, CA, USA; cat. # L3224) and cell viability was evaluated. Data were normalized to the mean confluence of wells containing no inhibitors. To measure the stability of the compounds, fresh blood was collected from heathy mice by cardiac puncture with a heparin-coated needle and syringe and 30UI/mL heparin was added. Next, compound 5, compound 7 or vehicle (DMSO) was added to the blood at a final concentration of 500 µM and incubated at 37 °C. […] Background inhibition was subtracted and results were expressed as percentage inhibition.

Data set [1] has as its target T1, recombinant human MMP-9 monomers (Homo sapiens, UniProt P14780).
T1 construct: made in house; host or cells: Sf9 insect cells
Kind of data set: Gelatin degradation assay, recombinant MMP-9 monomers. The format is biochemical. As to conditions: recombinant human MMP-9 (Sf9) mono. As for the experimental part: (§1) Compounds 5 and 7 were synthesized as previously reported. Full-length human proMMP-9 was produced by recombinant expression in Sf9 insect cells and purified by gelatin-Sepharose chromatography as previously described. Stable full-length proMMP-9 monomers and trimers were separated by glycerol gradient ultracentrifugation as previously described. ProMMP-9 mixture and the separated monomers and trimers were activated by incubation with the catalytic domain of MMP-3 (cat. No. 444217, Merck Millipore, Darmstadt, Germany) as previously described. Activation of proMMP-9 was confirmed by a band shift of ±10 kDa, corresponding to the removal of the auto-inhibitory propeptide domain and by detection of gelatinolytic activity with a previously described gelatin degradation assay. MMP-9 monomers and trimers purified from human neutrophils were purchased (Cat. No. 444,231 and 444232, Sigma-Aldrich, St. Louis, MO, USA). Examples of sample purities and activations can be found in Supplementary Figure S1. Recombinant human proMMP-2 (CHO cell-derived), proMMP-3 (NS0 cell-derived), proMMP-7 (NS0 cell-derived) and proMMP-8 (NS0 cell-derived) were purchased from R & D systems (Minneapolis, MN, USA), dissolved in assay buffer (150 mM NaCl, 5 mM CaCl2, 0.01% Tween-20, 50 mM Tris, pH 7.4) to a concentration of 100 µg/mL and activated by incubation with 1 mM p-aminophenylmercuric acetate for, respectively, 1h, 6h, 2h and 1h. Activation of MMPs was confirmed by a band shift of approximately 10 kDa, corresponding to the removal of the propeptide domain. MMP-14/MT1-MMP (NS0 cell-derived) was also purchased from R & D systems (Minneapolis, MN, USA) and activated by incubation with recombinant human furin (cat. No. 1503-SE-010, R & D systems, Minneapolis, MO, USA) in activation buffer (50 mM Tris, 1 mM CaCl2, 0.5% Brij-35, pH 9) for 1.5 h and activity was tested in assay buffer (50 mM Tris, 3 mM CaCl2, 1 µM ZnCl2, pH 8.5). Active human neutrophil elastase (NE) was purchased from Abcam (Cambridge, UK) and for activity assays of NE the assay buffer was replaced by 200 mM Tris, pH 8.8. ADAM17/TACE (Sf 21 (baculovirus)-derived, R & D systems, Minneapolis, MO, USA) was diluted and evaluated in 25 mM Tris, 2.5 μM ZnCl2, 0.005% Brij-35, pH 9.0. All stocks of the compounds were evaluated for the presence of endotoxin using the EndoZyme II assay (Hyglos bioMérieux, Bernried am Starnberger See, Germany). Endotoxin levels in all concentrated stocks (2.5 mg/mL) were below the accepted limit of 0.5 EU/mL.
To determine the inhibition of gelatinolytic activity, we used a previously optimized gelatin degradation assay. Activated MMP-9, activated MMP-2, neutrophil elastase or supernatants of stimulated neutrophils, were incubated with different concentrations of inhibitors and incubated for 30 min at 37 °C. Next, dye-quenched gelatin (DQ™-gelatin, Invitrogen, Carlsbad, CA, USA) was added at a final concentration of 2.5 µg/mL and the increase in fluorescence over time was measured with the CLARIOstar microplate reader (BMG Labtech, Ortenberg, Germany). For other MMPs, the OmniMMP substrate peptide (Mca-PLGL-Dpa-AR-NH2, cat. no. BML-P126-0001, Enzo Life Sciences, Farmingdale, NY, USA) was used at a final concentration of 2.5 µg/mL. For ADAM17 the fluorogenic peptide Mca-PLAQAV-Dpa-RSSSR-NH2 (ES003, R & D systems, Minneapolis, MO, USA) and for neutrophil elastase the fluorogenic substrate MeOSuc-AAPV-AMC (cat. no. 324740, Merck Millipore, Darmstadt, Germany) were used. Proteolytic activity was determined by linear regression of the fluorescence curve and the percentage inhibition was calculated through comparison with the positive control (no inhibitors). When testing supernatants from human neutrophils, the assay was performed in the presence of 20 µM neutrophil elastase inhibitor (Elastase Inhibitor IV, Calbiochem, Darmstadt, Germany).

The target in data set [2] is T2, recombinant human MMP-9 mixture (± 70% monomers and ± 30% trimers) (Homo sapiens, UniProt P14780).
T2 construct: made in house; host or cells: Sf9 insect cells
T2 sequence (P14780 107-707 limits assumed): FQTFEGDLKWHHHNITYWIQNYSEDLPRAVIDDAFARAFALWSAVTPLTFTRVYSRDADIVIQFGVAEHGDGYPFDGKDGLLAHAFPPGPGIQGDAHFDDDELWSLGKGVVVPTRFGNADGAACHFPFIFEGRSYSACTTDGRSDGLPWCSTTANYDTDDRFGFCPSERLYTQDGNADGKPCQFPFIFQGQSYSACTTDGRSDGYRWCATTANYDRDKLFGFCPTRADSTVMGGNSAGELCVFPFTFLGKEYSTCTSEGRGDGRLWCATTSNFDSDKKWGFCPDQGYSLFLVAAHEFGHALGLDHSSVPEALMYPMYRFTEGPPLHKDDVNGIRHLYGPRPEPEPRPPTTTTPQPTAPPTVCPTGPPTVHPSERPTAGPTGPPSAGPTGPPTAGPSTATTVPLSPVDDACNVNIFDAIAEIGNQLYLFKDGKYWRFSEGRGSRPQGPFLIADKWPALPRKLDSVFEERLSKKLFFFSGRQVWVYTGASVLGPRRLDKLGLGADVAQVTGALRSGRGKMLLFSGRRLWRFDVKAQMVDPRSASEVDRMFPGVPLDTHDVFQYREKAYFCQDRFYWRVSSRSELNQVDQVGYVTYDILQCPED
Kind of data set: Fluorogenic peptide (OmniMMP) degradation assay, recombinant MMP-9 mixture. The format is biochemical. As to conditions: recombinant human MMP-9 (Sf9) mix. The procedure:
as §1
To determine the inhibition of gelatinolytic activity, we used a previously optimized gelatin degradation assay. […] […] […] BML-P126-0001, Enzo Life Sciences, Farmingdale, NY, USA) was used at a final concentration of 2.5 µg/mL. For ADAM17 the fluorogenic peptide Mca-PLAQAV-Dpa-RSSSR-NH2 (ES003, R & D systems, Minneapolis, MO, USA) and for neutrophil elastase the fluorogenic substrate MeOSuc-AAPV-AMC (cat. no. 324740, Merck Millipore, Darmstadt, Germany) were used. Proteolytic activity was determined by linear regression of the fluorescence curve and the percentage inhibition was calculated through comparison with the positive control (no inhibitors). When testing supernatants from human neutrophils, the assay was performed in the presence of 20 µM neutrophil elastase inhibitor (Elastase Inhibitor IV, Calbiochem, Darmstadt, Germany).

pIC50: −log10 of the molar value.

T1 sequence (P14780 107-707 limits assumed): as above

As for `CC(C)[C@H](C(=O)O)N(CCNC(=O)c1ccccc1)S(=O)(=O)c1ccc(-c2ccccc2)cc1` [Compound 5], the “cellular toxicity (cell viability of U-87 cells)” value with U-87 cell line is “nor did they induce cellular toxicity”. Besides, in data set [1], the IC25 was 392 nM, the pIC50 is 5.82 and the IC75 amounted to 5859 nM. Further, in data set [2], the IC25 came to 228 nM, the pIC50 is 6.14 and the IC75 was found to be 2309 nM.
In the case of `CC(C)[C@H](C(=O)O)N(CCNC(=O)c1cccc(C(=O)NCCN([C@@H](C(=O)O)C(C)C)S(=O)(=O)c2ccc(-c3ccccc3)cc2)c1)S(=O)(=O)c1ccc(-c2ccccc2)cc1` [Compound 7], in the data set with U-87 cell line, the “cellular toxicity (cell viability of U-87 cells)” value was “nor did they induce cellular toxicity”. Further, in data set [1], the IC25 stood at 48 nM, the pIC50 is 6.72 and the IC75 came to 754 nM. Besides, in data set [2], the concentration for an effect of 25% (IC25) was 1.4 nM, the pIC50 is 7.82 and the 75% effect concentration (IC75) is 169 nM.
